Data: patent US9320734B2, “Small molecule inhibitors of the pleckstrin homology domain and methods for using same” (Board of Regents, The University of Texas System, priority 2008, dated 2016)
≈ marks a conversion by molar mass, not a printed value.

Tests used:
[1] = system: phospho-Ser473-AKT in HT-29 cells; experiment: Cellular AKT inhibition, Western blot phospho-Ser473-AKT, HT-29 cells; format: cell-based; settings: human HT-29 colon cancer cells
Experimental: (§1) AKT inhibition leads to cellular apoptosis.
(§2) AKT activity was measured by Western blotting using anti-[…] AKT antibody. Downstream targets of AKT were detected also by Western blotting using specific anti-phospho antibodies and anti-actin was used as a loading control.

[2] = system: phospho-Ser473 AKT in NIH3T3 cells; experiment: Cellular AKT inhibition, phospho-Ser473 AKT, NIH3T3 cells; format: cell-based; settings: mouse NIH3T3, phospho-Ser473 AKT
Experimental: as §2

[3] = system: HT-29 colon cancer xenografts; experiment: Antitumor activity, HT-29 colon cancer xenografts; format: in vivo, scid mice; settings: orally for 5 days, daily dose 250 mg/kg
Experimental: (§3) AKT and phospo-Ser-AKT values are the mean of 4 mice and bars are S.E., *p<0.05, **p<0.01. Additionally, 24 hours after administration there was an unexpected significant decrease in the apparent total AKT concentration compared to an actin loading control.

[4] = system: phospho-Ser-AKT in HT-29 xenograft tumors; experiment: Tumor phospho-Ser-AKT in HT-29 xenografts; format: in vivo, scid mice
Experimental: as §3

[5] = Pharmacokinetics of compound 316, plasma concentrations
[6] = system: BXPC3 pancreatic tumor cells, MCF-7 breast tumor cells, and A549 nscl lung cancer cells; experiment: Antitumor activity of alkyl chain analogs in subcutaneous xenografts (FIG. 9); format: in vivo; settings: 200 mg/kg twice a day for 10 days
[7] = system: phospho-Ser473-AKT in BxPC-3; experiment: Cellular AKT inhibition, Western blot phospho-Ser473-AKT, BxPC-3 cells; format: cell-based, human; settings: BxPC-3 cells, Western blot
[8] = system: Panc-1 pancreatic cell line; experiment: Apoptosis, morphological assay, Panc-1 cells; format: cell-based, human; settings: Panc-1, morphological assay
Excerpt: as §1

[9] = system: MiaPaca-2 pancreatic cell line; experiment: Apoptosis, morphological assay, MiaPaCa-2 cells; format: cell-based, human; settings: MiaPaca-2, morphological assay
Excerpt: as §1

[10] = Plasma levels of compound 104 (HPLC); format: in vivo, scid mice; settings: single 125 mg/kg i.p. dose, between 1 and 6 h
Experimental: (§4) This observation was tested using pharmacodynamic and pharmacokinetic studies. […]. […] Western blotting was performed as described above. […].

[11] = format: in vivo; settings: single doses up to 250 mg/kg; preliminary studies
Experimental: as §4

BxPC-3 pancreatic cancer = experiment: Antitumor activity, oral dosing, BxPC-3 xenograft; format: in vivo, scid mice; settings: BxPC-3, oral
PC3 prostate cancer = experiment: Antitumor activity, oral dosing, PC3 xenograft; format: in vivo, scid mice; settings: 125 mg/kg BID × 5 D
SKOV-3 ovarian cancer = experiment: Antitumor activity, oral dosing, SKOV-3 xenograft; format: in vivo, scid mice; settings: SKOV-3, oral, 250 mg/kg BID × 10 D
A549 nsc lung cancer = experiment: Antitumor activity, oral dosing, A549 xenograft; format: in vivo, scid mice; settings: 200 mg/kg BID × 10 D
MCF-7 breast cancer = experiment: Antitumor activity, oral dosing, MCF-7 xenograft; format: in vivo, scid mice; settings: MCF-7, oral
HaCaT cells = experiment: Apoptosis (PARP cleavage), HaCaT cells; format: cell-based, human; settings: 10 μM
Excerpt: (§5) Normal morphogenesis and differentiation features of skin keratinocytes are retained in the HaCaT cultures.

HaCat-II,4 cells = experiment: Apoptosis (PARP cleavage), HaCaT-II,4 cells; format: cell-based, human; settings: 10 μM
Excerpt: as §5

[12] = system: total AKT in scid mouse skin; experiment: Topical application, total AKT immunohistochemistry in skin; format: in vivo, scid mice; settings: 20 mg/ml in 0.1 ml acetone topically; between 1 and 4 hours, reappears after 24 hours
Experimental: Skin biopsies were taken and immunohistochemistry for AKT was performed on the sections. […] Staining was measured by quantitative immunohistochemistry with correction for non-specific background staining (p<0.05). Phospho-Ser^473-AKT was not detectable in dermal layer. FIG. 15C summarizes the effects of compound over a 24 hour period as determined by Western blot analysis performed as described above.

HT-29 cells [13] = experiment: Cell survival / cytotoxicity, MTT assay, HT-29 cells; format: cell-based, human; settings: HT-29 cells; NI = not inhibitory; read-out: Cytotoxicity (IC50 μM)
PH domain of PDK1 = PH domain of PDK1 (Homo sapiens (Human), UniProt O15530); experiment: SPR direct binding to PDK1 PH domain; settings: NB = no measurable binding, read-out: PDK1 PH mKD
Sequence of PH domain of PDK1 (O15530 459-550): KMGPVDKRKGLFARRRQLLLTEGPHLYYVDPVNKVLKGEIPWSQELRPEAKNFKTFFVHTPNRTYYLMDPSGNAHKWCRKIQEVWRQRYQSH
Experimental: (§6) Binding assays using SPR and an ELISA competitive binding assay were used to measure the binding affinity (KD) of the compounds to all three PH domains. SPR was carried out as described above. […] Purified GST-PH domains were incubated with increasing concentrations of the compounds under anylsis for about 4 hours in 0.2 M carbonate buffer pH 9.4 and were added to the 96-well plate and incubated overnight at 4° C. Following incubation, the plate was washed 4 times with phosphate buffered 0.9% NaCl (PBS), blocked with 3% bovine serum albumin (BSA) in PBS and 0.01% Tween for 1 hour, washed again 4 times with PBS and mouse monoclonal anti-glutathione-S-transferase antibody in 3% BSA (1:2000) was added for 1 hr at room temperature with shaking. The plate was washed 4 times with PBS and an anti-mouse IgG horseradish peroxidase coupled antibody (dilution 1:2000 in 3% BSA) was added for 1 hr. After 4 washes with PBS, 2,2′-azinobis[3-ethylbenzothiazoline-6-sulfonic acid]-diammonium salt (ABST) was added and the reaction was allowed to develop for 30 min.

HT-29 cells [14] = experiment: Metabolic stability under cell culture conditions (incubation with HT-29 cells); format: in vitro ADME, human; settings: for Metabolic half life: incubating with HT-29 cells at maximum DMEM concentration at 37° C.
Excerpt: Compound 6 was too insoluble to obtain data.

Solubility = format: physicochemical
AKT PH domain = AKT PH domain (Homo sapiens (Human), UniProt P31749); experiment: SPR spectroscopy direct binding (Biacore 2000); settings: purified AKT PH domain, SPR (Biacore 2000); NB = not binding
Sequence of AKT PH domain (P31749 5-108): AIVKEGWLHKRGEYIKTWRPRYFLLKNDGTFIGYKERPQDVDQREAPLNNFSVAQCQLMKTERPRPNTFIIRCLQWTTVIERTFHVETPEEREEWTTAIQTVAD
Experimental: as §6

[15] = system: phospho-Ser473-AKT in Panc-1 cells; experiment: Cellular AKT inhibition, Western blot phospho-Ser473-AKT, Panc-1 cells; settings: Homo sapiens, PANC-1, read-out: pAKT inhibition (IC50)
[16] = system: phospho-Ser473-AKT in MiaPaCa-2 cells; experiment: Cellular AKT inhibition, Western blot phospho-Ser473-AKT, MiaPaCa-2 cells; settings: Homo sapiens, MIA PaCa-2, read-out: pAKT inhibition (IC50)
IRS1 PH domain = IRS1 PH domain (Homo sapiens (Human), UniProt P35568); experiment: SPR direct binding to IRS1 PH domain; settings: NB = no measurable binding, read-out: IRS1 PH mKD
Sequence of IRS1 PH domain (P35568 12-115): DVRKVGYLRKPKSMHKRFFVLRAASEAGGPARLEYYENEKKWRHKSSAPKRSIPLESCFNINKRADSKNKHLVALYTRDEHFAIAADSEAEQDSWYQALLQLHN
Experimental: as §6

Compound: CC1=NN(C(=O)c2ccc(Cl)cc2)C(=O)C1/N=N/c1ccc(S(=O)(=O)Nc2ncccn2)cc1 (centres unmarked) [Compound 316, (E)-4-((1-(4-chlorobenzoyl)-3-methyl-5-oxo-4,5-dihydro-1H-pyrazol-4-yl)diazenyl)-N-(pyrimidin-2-yl)benzenesulfonamide]
- IC50 [1]: 13 µM
- IC50 [2]: 4 µM
- antitumor activity [3]: no activity
- tumor phospho-Ser-AKT ([4]; 4 hours after a single 250 mg/kg dose): inhibition of tumor phospho-Ser-AKT was observed
- tumor phospho-Ser-AKT ([4]; 24 hours after a single 250 mg/kg dose): appears to lost
- toxicity, repeated dose (Toxicity of compound 316; five daily doses of 250 mg/kg i.p.): moderate neutropenia but no other sign of toxicity
- toxicity, single dose (Toxicity of compound 316; single dose of up to 250 mg/kg, preliminary studies): no toxicity
- elimination ([5]; 250 mg/kg): eliminated relatively rapidly over about a 24 hr period
- peak plasma concentration ([5]; single dose 250 mg/kg i.p.): 1.4 µM
- peak plasma concentration ([5]; single dose 250 mg/kg oral): 0.6 µM

Compound: CCCCc1ccc(S(=O)(=O)Nc2nncs2)cc1 [Compound 155, 4-Butyl-N-(1,3,4-thiadiazol-2-yl)benzenesulfonamide]
- antitumor activity [6]: inactive

Compound: CCCCCCCCCCCCc1ccc(S(=O)(=O)Nc2nncs2)cc1 [Compound 104, 4-Dodecyl-N-(1,3,4-thiadiazol-2-yl)benzenesulfonamide]
- GSK3β and p70S6K phosphorylation [7]: inhibited in a dose-dependent manner
- Apoptosis at 20 μmol/L [8]: 40.0 ± 2.9/ %
- Apoptosis at 20 μmol/L [9]: 31.3 ± 1.6%
- plasma concentration [10]: a peak corresponding to compound 104 was detected in the plasma
- toxicity [11]: not toxic
- Growth rate mm^3/10 days (BxPC-3 pancreatic cancer; 100 mg/kg BID × 10 D): 181 ± 52 mm^3/10 days
- T/C % (BxPC-3 pancreatic cancer; 100 mg/kg BID × 10 D): 64.8%
- Growth rate mm^3/10 days (BxPC-3 pancreatic cancer; 125 mg/kg BID × 5 D): 67 ± 35 mm^3/10 days
- T/C % (BxPC-3 pancreatic cancer; 125 mg/kg BID × 5 D): 29.4%
- Growth rate mm^3/10 days (BxPC-3 pancreatic cancer; 200 mg/kg BID × 10 D): 77 ± 44 mm^3/10 days
- T/C % (BxPC-3 pancreatic cancer; 200 mg/kg BID × 10 D): 27.6%
- Growth rate mm^3/10 days (BxPC-3 pancreatic cancer; 250 mg/kg BID × 5 D): 46 ± 53 mm^3/10 days
- T/C % (BxPC-3 pancreatic cancer; 250 mg/kg BID × 5 D): 20.1%
- Growth rate mm^3/10 days (PC3 prostate cancer): 470 ± 121 mm^3/10 days
- T/C % (PC3 prostate cancer): 60.3%
- Growth rate mm^3/10 days (SKOV-3 ovarian cancer): 122 ± 16 mm^3/10 days
- T/C % (SKOV-3 ovarian cancer): 28.3%
- Growth rate mm^3/10 days (A549 nsc lung cancer): 182 ± 47 mm^3/10 days
- T/C % (A549 nsc lung cancer): 44.1%
- Growth rate mm^3/10 days (MCF-7 breast cancer; 100 mg/kg BID × 10 D): 383 ± 139 mm^3/10 days
- T/C % (MCF-7 breast cancer; 100 mg/kg BID × 10 D): 93.4%
- Growth rate mm^3/10 days (MCF-7 breast cancer; 200 mg/kg BID × 10 D): 156 ± 30 mm^3/10 days
- T/C % (MCF-7 breast cancer; 200 mg/kg BID × 10 D): 38.0%
- apoptosis (HaCaT cells): 80%
- apoptosis (HaCat-II,4 cells): 60%
- Total Akt staining in skin [12]: decreased significantly overtime

Compound: CC1=NN(C(=O)c2ccc(C(C)(C)C)cc2)C(=O)C1/N=N/c1ccc(S(=O)(=O)Nc2ncccn2)cc1 (centres unmarked) [Compound 332]
- IC50 [1]: > 20 µM
- IC50 [2]: > 20 µM
- IC50 (HT-29 cells [13]): 25 µM
- Kd (PH domain of PDK1): 3570 nM
- Metabolic half life (HT-29 cells [14]): 91 min
- Solubility (Solubility): 28.6 µM (≈ 14.9 µg/mL)

Compound: CC(=O)Nc1ccc(S(=O)(=O)Nc2nncs2)cc1 [Compound 102, N-(4-(N-1,3,4-Thiadiazol-2-ylsulfamoyl)phenyl)acetamide]
- KD (AKT PH domain): did not appear to bind directly
- Apoptosis at 20 μmol/L [8]: 6.8 ± 0.9/ %
- Apoptosis at 20 μmol/L [9]: 10.3 ± 2.1%
- IC50 [15]: > 50 µM
- IC50 [16]: > 50 µM

Compound: CC1=NN(C(=O)c2ccc(N)cc2)C(=O)C1/N=N/c1ccc(S(=O)(=O)Nc2ncccn2)cc1 (centres unmarked) [Compound 333]
- IC50 [1]: > 20 µM
- Kd (IRS1 PH domain): 140 ± 20 nM
- Metabolic half life (HT-29 cells [14]): >480 min
- stability under cell culture conditions (HT-29 cells [14]; over the time period studied): did not appear to breakdown
- Solubility (Solubility): 12.9 µM (≈ 6.17 µg/mL)

Compound: CC1=NN(C(=O)c2ccc(O)cc2)C(=O)C1/N=N/c1ccc(S(=O)(=O)Nc2ncccn2)cc1 (centres unmarked) [Compound 360]
- IC50 [1]: > 20 µM
- IC50 [2]: 5 µM
- Kd (PH domain of PDK1): 420 nM
- Kd (IRS1 PH domain): 1740 ± 410 nM
- Metabolic half life (HT-29 cells [14]): 138 min
- Solubility (Solubility): 13.1 µM (≈ 6.28 µg/mL)
